3 molecules from US20240157358A1, “BIOSENSING SYSTEM AND METHOD FOR IN-SITU DETERMINATION OF METASTASIS IN A SAMPLE” (City University of Hong Kong, priority 2022, published 2024) can be followed below.

Structures are written as SMILES.

This test concerns C. elegans. Briefly: C. elegans chemotaxis assay in the microfluidic biosensor. It is filed as in vivo, Caenorhabditis elegans. The following applies: for CIPBS level (chemotaxis index relative to PBS): CI level of PBS buffer standards defined as 1, FIG. 3B; for nematode chemotaxis score: single substance at lower concentrations, corresponding to metastatic cancer, heat maps FIGS. 7C and 7D.

Method: It was cultured in the OP50, a strain of Escherichia coli used to maintain C. elegans cultures, with nematode growth media (NGM) plate. Before each biosensing assay, the viability of C. elegans was assessed by probing with an inoculation needle.
All materials required for performing biosensing assay in the present biosensing system should be kept at room temperature before loading C. elegans into the biosensor to maintain their viability. Briefly, medium supernatants at −80° C. and biosensor initially stored in a 4° C. freezer were thawed at room temperature. Adult C. elegans were collected in 1.5 mL tubes and washed twice with phosphate-buffered saline (PBS) buffer (Gibco, Waltham, MA, USA) before assay. All clinical samples to be tested were transported at room temperature, and the biosensing assay should be completed within 4 hours from the time of collection. The clinical samples should be mixed well before loading, and about 1 ml of the sample was taken into a 1.5 ml tube for each biosensing assay. The remaining samples could be sealed and stored at −80° C. for further use.
During each biosensing assay, approximately 50-100 μl of PBS containing 100 C. elegans was gently pipetted into the middle of the second layer where the organism loading region is disposed without compromising the viability of C. elegans and disrupting the integrity of the NGM agar, thereby increasing the reliability of the biosensing assay results. Once the C. elegans were settled, the pressure pump was started immediately to flow the test samples, comparative sample and/or negative control to the corresponding bio-incubation chambers from the fluid inlets at the first layer and through different fluid channels to reach the second layer without damaging the NGM agar integrity. In certain embodiments, an optimal flow rate of the fluid applied to the biosensor is about 0.5 mL/min. […] By this optimal flow rate, all fluid channels can be primed in 1 min and about 10 to 100 μl droplets can be formed at each fluid outlet of the fluid channels. Because of that, the volume of the test samples applied in each fluid inlet at each round of biosensing assay can be less than 1 mL. […]
To standardize the quantitative readouts, a chemotaxis index (CI) relative to the CI measured from PBS (CIPBS) was derived by the following Equation:
The CIPBS level readouts were evaluated with the present biosensing system using a range of glutamate concentration levels that included concentrations detected from MCF-7 and MDA-MB-231 clusters (0.02 mg/ml, 0.04 mg/ml, 0.06 mg/ml, 0.08 mg/ml, and 0.1 mg/ml) (FIG. 3A). CI level readouts were modified for parallel comparison of all concentrations, with the CI level obtained from PBS buffer standards defined as 1.

Regarding `N[C@@H](CCC(=O)O)C(=O)O` [glutamate], the “CIPBS level (chemotaxis index relative to PBS)” value was 3.6±0.03 (glutamate concentration 0.02 mg/ml) and 1.1±0.04 (glutamate concentration 0.1 mg/ml (highest tested)).

Consider `O=C(O)[C@@H]1CCCN1` [L-proline], for which the nematode chemotaxis score result is “around 6”.

Turning to `NC(N)=O` [urea], the nematode chemotaxis score result is “around 6”.
